Structures can show the parent of a compound that is named as a salt. Where two headings read alike, the source gives them in different places.
What was measured:
CDC7 = CDC7 (Homo sapiens, UniProt O00311); test: CDC7 inhibition, biochemical chemiluminescence assay (Kinase Glo, IC50 determination)
Description: Characterization of CDC7 Inhibition in a Biochemical Chemiluminesence Assay (IC50 Determination):
The IC50 evaluation of compounds against the CDC7 enzyme was performed in a Chemiluminesence assay utilizing a Greiner 384-well white binding plate format. […] Upon addition of 10 μL of CDC-7 (GB) to the designated well plates and subsequent incubation for ten minutes at ambient temperature, 10 μL of ATP mix in Tris Base was added. Following an incubation period of 90 minutes at ambient temperature (24-27° C.), 20 μL of Kinase Glo (Promega) was added to measure kinase activity by quantitating the amount of ATP remaining in solution. The luminescence was measured following a Luciferase Protocol on either EnVision or Victor plate readers.

CK2 = CK2 (Homo sapiens, UniProt P68400); test: CK2 inhibition, biochemical chemiluminescence holoenzyme assay (Kinase Glo, IC50 determination); settings: Table 1 activity class; symbol given only if active; read-out: CK2 IC50 (Activity C)
Outline: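 Holoenzyme CK2 assay; compounds pre-incubated with substrate and enzyme, then reacted 150 min at 24-27° C. Remaining ATP measured as luminescence with Kinase Glo, and IC50 derived from the signal.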

[1] = target: PIM (PIM-1, PIM-2, and/or PIM-3); test: PIM-1, PIM-2 and PIM-3 inhibition, biochemical chemiluminescence assays (Kinase Glo, IC50 determination); settings: Table 1 activity class; PIM refers to PIM-1, PIM-2, and/or PIM-3; read-out: PIM IC50 (Activity B)
[2] = Table 1 activity class, symbol given only if active, read-out: CDC7 IC50 (Activity A)
[3] = compounds in Table 1, read-out: CDC7 IC50 value

Sequence of CDC7 (O00311 whole entry): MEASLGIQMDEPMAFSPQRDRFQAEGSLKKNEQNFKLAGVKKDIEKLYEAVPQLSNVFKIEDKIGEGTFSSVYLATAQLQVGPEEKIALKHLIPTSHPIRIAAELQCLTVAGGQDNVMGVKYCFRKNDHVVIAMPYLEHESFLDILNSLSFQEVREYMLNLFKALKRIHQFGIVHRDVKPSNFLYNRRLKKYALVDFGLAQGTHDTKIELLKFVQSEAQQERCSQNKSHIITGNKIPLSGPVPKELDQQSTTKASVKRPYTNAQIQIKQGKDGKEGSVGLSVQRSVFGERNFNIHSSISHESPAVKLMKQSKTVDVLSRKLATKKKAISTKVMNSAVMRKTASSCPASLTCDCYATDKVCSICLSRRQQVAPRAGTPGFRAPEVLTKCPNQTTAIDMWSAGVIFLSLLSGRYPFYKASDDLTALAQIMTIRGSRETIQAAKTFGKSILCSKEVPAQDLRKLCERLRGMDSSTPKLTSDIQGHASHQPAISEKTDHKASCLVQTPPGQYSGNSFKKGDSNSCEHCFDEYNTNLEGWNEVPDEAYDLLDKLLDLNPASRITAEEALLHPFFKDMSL
Sequence of CDC7 (Q9UBU7 whole entry partner): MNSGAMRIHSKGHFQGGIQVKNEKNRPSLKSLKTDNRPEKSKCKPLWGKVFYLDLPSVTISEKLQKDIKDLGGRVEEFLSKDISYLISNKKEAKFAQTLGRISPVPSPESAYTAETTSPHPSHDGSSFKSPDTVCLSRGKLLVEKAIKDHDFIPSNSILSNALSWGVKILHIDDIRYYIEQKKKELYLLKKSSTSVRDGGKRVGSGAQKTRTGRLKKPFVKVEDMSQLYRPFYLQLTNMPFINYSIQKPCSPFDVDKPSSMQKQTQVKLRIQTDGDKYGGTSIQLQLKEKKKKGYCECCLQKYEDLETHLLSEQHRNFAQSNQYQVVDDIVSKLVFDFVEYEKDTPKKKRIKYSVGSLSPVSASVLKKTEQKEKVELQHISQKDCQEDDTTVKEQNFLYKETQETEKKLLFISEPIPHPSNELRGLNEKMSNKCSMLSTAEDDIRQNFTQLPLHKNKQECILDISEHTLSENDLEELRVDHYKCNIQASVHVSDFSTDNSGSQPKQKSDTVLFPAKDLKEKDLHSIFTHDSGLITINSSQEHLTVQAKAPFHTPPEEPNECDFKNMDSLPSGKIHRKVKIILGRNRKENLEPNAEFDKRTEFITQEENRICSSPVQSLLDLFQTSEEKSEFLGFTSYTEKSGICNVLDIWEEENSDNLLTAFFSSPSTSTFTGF
Sequence of CK2 (P68400 whole entry): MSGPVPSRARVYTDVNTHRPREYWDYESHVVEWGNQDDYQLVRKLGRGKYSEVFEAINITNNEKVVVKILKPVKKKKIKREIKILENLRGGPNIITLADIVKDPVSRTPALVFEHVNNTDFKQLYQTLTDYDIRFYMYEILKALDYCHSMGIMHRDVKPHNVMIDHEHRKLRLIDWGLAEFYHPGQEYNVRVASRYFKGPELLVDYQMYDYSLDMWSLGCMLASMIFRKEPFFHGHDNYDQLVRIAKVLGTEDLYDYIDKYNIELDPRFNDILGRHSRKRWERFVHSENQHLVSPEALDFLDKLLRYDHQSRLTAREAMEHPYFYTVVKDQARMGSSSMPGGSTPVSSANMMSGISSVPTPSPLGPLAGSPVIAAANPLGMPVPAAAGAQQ
Sequence of CK2 (P67870 whole entry partner): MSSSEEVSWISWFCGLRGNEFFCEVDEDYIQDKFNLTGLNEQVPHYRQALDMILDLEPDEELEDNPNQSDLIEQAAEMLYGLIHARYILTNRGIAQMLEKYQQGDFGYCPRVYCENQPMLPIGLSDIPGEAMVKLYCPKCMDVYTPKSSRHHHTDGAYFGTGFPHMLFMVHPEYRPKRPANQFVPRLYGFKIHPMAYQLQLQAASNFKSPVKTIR

In the case of `O=C(Nc1ccc(-c2nc3c(oc4ccc(Br)cc43)c(=O)[nH]2)c(Cl)c1)C1CCCNC1` (stereo not drawn) [Compound 140, N-[4-(8-bromo-4-oxo-3,4-dihydro[1]benzofuro[3,2-d]pyrimidin-2-yl)-3-chlorophenyl]piperidine-3-carboxamide], the IC50 (CDC7; [2]) is reported as < 10 µM, the IC50 (CK2) is reported as < 10 µM and the IC50 [1] is reported as < 10 µM.

With `O=c1[nH]c(CN2CC[C@H](O)C2)nc2c1oc1ccc3cn[nH]c3c12` [Compound 432, 9-{[(3S)-3-hydroxypyrrolidin-1-yl]methyl}-1H-pyrimido[4′,5′:4,5]furo[2,3-g]indazol-7(8H)-one] the IC50 (CDC7; [2]) was < 10 µM, the IC50 (CDC7; [3]) was < 0.1 µM and the IC50 (CK2) was < 10 µM. For the same molecule, the IC50 [1] was < 10 µM.

In the case of `CN1CCC[C@H]1c1nc2c(oc3ccc(Br)cc32)c(=O)[nH]1` [Compound 527, 8-Bromo-2-[(2S)-1-methylpyrrolidin-2-yl][1]benzofuro[3,2-d]pyrimidin-4(3H)-one hydrochloride], the IC50 (CDC7; [2]) is reported as < 10 µM, the IC50 (CDC7; [3]) is reported as < 0.1 µM and the IC50 (CK2) is reported as < 10 µM. The IC50 [1] was < 10 µM.

`O=C(Nc1ccc(-c2nc3c(oc4ccc(Br)cc43)c(=O)[nH]2)c(Cl)c1)c1cc(Cl)nc(Cl)c1` [Compound 294, N-[4-(8-bromo-4-oxo-3,4-dihydro[1]benzofuro[3,2-d]pyrimidin-2-yl)-3-chlorophenyl]-2,6-dichloropyridine-4-carboxamide] was tested, and the IC50 (CDC7; [2]) was < 10 µM, the IC50 (CK2) was < 10 µM and the IC50 [1] was < 10 µM.

`CN(C)CC(=O)Nc1ccc(-c2nc3c(oc4ccc(Br)cc43)c(=O)[nH]2)c(Cl)c1` [Compound 127, N-[4-(8-bromo-4-oxo-3,4-dihydro[1]benzofuro[3,2-d]pyrimidin-2-yl)-3-chlorophenyl]-N′2′,N′2′-dimethylglycinamide] was tested, and the IC50 (CDC7; [2]) was < 10 µM, the IC50 (CK2) was < 10 µM and the IC50 [1] was < 10 µM.

For `O=c1[nH]c([C@@H]2C[C@H](F)CN2)nc2c1oc1ccc(Br)cc12` [Compound 513, 8-bromo-2-[(2S,4S)-4-fluoropyrrolidin-2-yl][1]benzofuro[3,2-d]pyrimidin-4(3H)-one], the IC50 (CDC7; [2]) was < 10 µM, the IC50 (CDC7; [3]) was < 0.1 µM and the IC50 (CK2) was < 10 µM. For the same molecule, the IC50 [1] was < 10 µM.

In the case of `O=C(Nc1ccc(-c2nc3c(oc4ccc(Br)cc43)c(=O)[nH]2)c(Cl)c1)c1ccco1` [Compound 321, N-[4-(8-bromo-4-oxo-3,4-dihydro[1]benzofuro[3,2-d]pyrimidin-2-yl)-3-chlorophenyl]furan-2-carboxamide], the IC50 (CDC7; [2]) is reported as < 10 µM, the IC50 (CK2) is reported as < 10 µM and the IC50 [1] is reported as < 10 µM.

`CC1(O)CCN(Cc2nc3c(oc4ccc(Br)cc43)c(=O)[nH]2)C1` (stereo not drawn) [Compound 346, 8-bromo-2-[(3-hydroxy-3-methylpyrrolidin-1-yl)methyl][1]benzofuro[3,2-d]pyrimidin-4(3H)-one] was tested, and the IC50 (CDC7; [2]) was < 10 µM, the IC50 (CDC7; [3]) was < 0.1 µM and the IC50 (CK2) was < 10 µM. For the same molecule, the IC50 [1] was < 10 µM.

With `CC1(C)CC[C@@H](c2nc3c(oc4ccc(Br)cc43)c(=O)[nH]2)N1` [Compound 515, 8-bromo-2-[(2S)-5,5-dimethylpyrrolidin-2-yl][1]benzofuro[3,2-d]pyrimidin-4(3H)-one] the IC50 (CDC7; [2]) was < 10 µM, the IC50 (CDC7; [3]) was < 0.1 µM and the IC50 (CK2) was < 10 µM. For the same molecule, the IC50 [1] was < 10 µM.

For `COc1ccc(C(=O)Nc2ccc(-c3nc4c(oc5ccc(Br)cc54)c(=O)[nH]3)c(Cl)c2)cn1` [Compound 343, N-[4-(8-bromo-4-oxo-3,4-dihydro[1]benzofuro[3,2-d]pyrimidin-2-yl)-3-chlorophenyl]-6-(methyloxy)pyridine-3-carboxamide], the IC50 (CDC7; [2]) was < 10 µM, the IC50 (CK2) was < 10 µM and the IC50 [1] was < 10 µM.

In the case of `O=c1[nH]c(CN2CC[C@@H](F)C2)nc2c1oc1ccc(Br)cc12` [Compound 307, 8-bromo-2-{[(3R)-3-fluoropyrrolidin-1-yl]methyl}[1]benzofuro[3,2-d]pyrimidin-4(3H)-one], the IC50 (CDC7; [2]) is reported as < 10 µM, the IC50 (CDC7; [3]) is reported as < 0.1 µM and the IC50 (CK2) is reported as < 10 µM. The IC50 [1] was < 10 µM.

`COc1ccc2oc3c(=O)[nH]c(-c4ccc(NCC5CCNCC5)cc4Cl)nc3c2c1` [Compound 138, 2-{2-chloro-4-[(piperidin-4-ylmethyl)amino]phenyl}-8-(methyloxy)[1]benzofuro[3,2-d]pyrimidin-4(3H)-one] was tested, and the IC50 (CDC7; [2]) was < 10 µM, the IC50 (CK2) was < 10 µM and the IC50 [1] was < 10 µM.

Source: patent publication US20090247559A1 (Exelixis, Inc., priority 2007, published 2009)
